One assay deals with α2δ-1-NMDAR interaction. In words: Luminescence resonance energy transfer (LRET) in HEK293 cells. It counts as binding, rat. The source says:
Luminescence resonance energy transfer (LRET) measurements: For constructs used for LRET measurements, the extracellular non-disulfide-bonded cysteines were mutated to serines so that they were not labeled with the maleimide reactive fluorophore. For the GluN1 subunit, Cys22 and Cys459 were mutated; for the GluN2A subunit, Cys231, Cys399 and Cys461 were mutated. For measurement of LRET between GluN1 and α2δ-1, Cys22 was not mutated and was used as the site for attachment of the thiol-reactive fluorophore. Additionally, for quantitative analysis of the background, a thrombin recognition sequence (amino acids LVPRGS) was inserted immediately at the C-terminal to the cysteine (Kim and Chung, 1992). […]
Cysteines at the GluN1 and GluN2A sites labeled with thiol-reactive terbium chelate served as donor fluorophore sites, and YFP fused to α2δ-1 served as the acceptor fluorophore. […] The sample was excited at 337 nm, and emission was detected at 527 nm in a QuantaMaster QM3-SS system with Fluorescan software (Photon Technology International, Edison, N.J.). […] Data were analyzed with Origin 8.6 software (OriginLab Corp., Northampton, Mass.). Each sample was scanned 3 times for each ligated condition, and each scan was recorded as an average of 99 sweeps. […] The distance between the donor and acceptor was calculated using the Förster equation (Kim and Chung, 1992).

Assay [1] has as its system NMDARs of spinally projecting PVN neurons. The experiment in a line: Recordings of spinally projecting PVN neurons in WT and Cacna2d1 KO mouse slices (Ang II). As to conditions: Ang II 2 μmol/L. It counts as cell-based. From the text: Animals: 10- to 12-week-old male Sprague Dawley rats were used (Harlan Sprague Dawley, Indianapolis, Ind.) and both male and female mice (C57BL/6 genetic background) in the experiments. Two breeding pairs of Cacna2d1+/− mice were purchased from Medical Research Council (Harwell Didcot, Oxfordshire, UK), and Cacna2d1−/− (knockout) mice and Cacna2d1+/+ (wild-type) littermates were obtained by breeding the heterozygous mice. Because no sex differences were found in the effect of Ang II on synaptic NMDAR activity, electrophysiological data from male and female mice were pooled. All surgical preparation and experimental protocols were approved by the Animal Care and Use Committee of The University of Texas MD Anderson Cancer Center and conformed to the National Institutes of Health guidelines for the ethical use of animals. All efforts were made to minimize both the suffering and number of animals used.
Retrograde labeling of spinally projecting PVN neurons: Rats or mice were anesthetized with 2-3% isoflurane, and their spinal cords at the T1-T4 level were exposed through dorsal laminectomy. A fluorescent microsphere suspension (FluoSpheres, 0.04 μm; Molecular Probes, Invitrogen, Eugene, Oreg.) was pressure ejected (Nanoject II Microinjectors, Drummond Scientific Company, Broomall, Pa.) bilaterally into the IML region of the spinal cord in six separate 50-nl injections using a glass micropipette (tip diameter, 20-30 μm). The tracer injection was monitored through a surgical microscope (Li et al., 2002, 2003). The wound was closed with sutures after injection. Animals were returned to their cages for 4-7 days, which was sufficient time to permit the tracer to be retrogradely transported to the PVN. The animals were inspected daily for motor activity, signs of infection, and food and water intake.
Brain slice preparation: Four to seven days after fluorescent tracer injection, the animals were anesthetized with isoflurane and rapidly decapitated. The brain was quickly removed and placed in ice-cold artificial CSF (aCSF) saturated with 95% O2 and 5% CO2. A tissue block containing the hypothalamus was cut from the brain and glued onto the stage of a vibratome (Leica VT1000 S, Leica Biosystems Inc. Buffalo Grove, Ill.) as described previously (Li et al., 2003; Ye et al., 2011). […]
Electrophysiological recordings: The fluorescence-labeled neurons located in the medial one-third of the PVN area between the third ventricle and the fornix were selected for recording (Li et al., 2002, 2003). […]
The miniature excitatory postsynaptic currents (mEPSCs) were recorded in the presence of 1 μmol/L tetrodotoxin (TTX) and 20 μmol/L bicuculline at a holding potential of −60 mV (Li et al., 2003; Ye et al., 2011). […]

Data on two compounds can be found in patent publication US11787839B2, “Targeting α2δ-1-bound glutamate receptors for treating diseases and disorders” (Board of Regents, The University of Texas System, priority 2017, dated 2023).

Entries after “also recorded” stand apart in the source; their conditions may differ.

On to `NCC1(CC(=O)O)CCCCC1` [gabapentin], for which the “LRET signal with the R217A mutant of α2δ-1” value with α2δ-1-NMDAR interaction (YFP-α2δ-1 R217A mutant) was “failed to alter; also recorded: had no effect”. For the same compound, the “LRET signal between terbium-labeled NMDAR subunit and YFP-α2δ-1” value in the assay with α2δ-1-NMDAR interaction (wild-type α2δ-1, terbium-labeled GluN2A or GluN1) is given as “completely abrogated; also recorded: loss of the LRET signal; also recorded: diminished the interaction”.

With “Ang II: angiotensin II, obtained from Sigma (DRVYIHPF; Angiotensin-2; UniProt P01019 25-32, looked up)”, in assay [1] (Cacna2d1−/− mice), the “amplitude of puff NMDA-elicited currents” value is listed as “had no effect” and the “frequency of mEPSCs” value was “had no effect”. In assay [1] (wild-type mice), the “NMDAR-mediated frequency of mEPSCs” value is listed as “markedly increased” and the “amplitude of puff NMDA-elicited currents” value is given as “markedly increased”.
